Tests used:
Format in all cases: cell-based
K-562 = test: NCI 60 panel: K-562 (Leukemia)
Excerpt: (§5) TGI means the drug concentration resulting in total growth inhibition or “cytostasis.” LC50 is the concentration of drug resulting in a 50% reduction in the measured cytosolic ATP at the end of the drug treatment as compared to that at the beginning, indicating a net loss of cells following treatment (cytotoxicity).

HOP-62 = test: NCI 60 panel: HOP-62 (Non-Small Cell Lung Cancer)
Excerpt: as §5

NCI-H460 = test: NCI 60 panel: NCI-H460 (Non-Small Cell Lung Cancer)
Excerpt: as §5

NCI-H522 = test: NCI 60 panel: NCI-H522 (Non-Small Cell Lung Cancer)
Excerpt: as §5

HCT-15 = test: NCI 60 panel: HCT-15 (Colon Cancer)
Excerpt: as §5

SNB-19 = test: NCI 60 panel: SNB-19 (CNS Cancer)
Excerpt: as §5

OVCAR-4 = test: NCI 60 panel: OVCAR-4 (Ovarian Cancer)
Excerpt: as §5

DU-145 = test: NCI 60 panel: DU-145 (Prostate Cancer)
Excerpt: as §5

T-47D = test: NCI 60 panel: T-47D (Breast Cancer)
Excerpt: as §5

MDA-MB-468 = test: NCI 60 panel: MDA-MB-468 (Breast Cancer)
Excerpt: as §5

U118MG = test: Complementary DBM in vitro profiling: U118MG (CNS Cancer)
Protocol: (§1) The compounds described herein are effective for inhibiting cellular proliferation in hyperproliferative cell types. To study the effects of these compounds, an assay was developed to differentiate the effects of the compounds on proliferating versus confluent cells. The assay design generates a proliferating density 24 hours after seeding and provides a 3-day active cell growth/doubling window in which to gauge the anti-proliferative effect of the compounds described herein. […] In this 3-day growth window, cell number increases with daily doublings across the 72-hour period (see FIG. 1).
(§2) In each assay design, compounds were added at the 24-hour timepoint after cell seeding. The effect of the compounds, relative to vehicle control and to VelCade (a proteasome inhibitor approved in the U.S. for treating relapsed multiple myeloma and mantle cell lymphoma) as a positive control, was assessed across the 3-day growth window for proliferating cells and on an already near confluent culture of cells for the same time period. Normal cells were handled in the same manner, with some adjustment of seeding density needed in select cases. […]
(§3) Cell number at the end of the assay was determined using the CELLTITER-GLO Luminescent Cell Viability Assay (Promega; Madison, Wis.). The CELLTITER-GLO Luminescent Cell Viability Assay is a homogeneous method of determining the number of viable cells in culture based on quantitation of the ATP present, an indicator of metabolically active cells. IC50 values were calculated. […]
(§4) For a typical screening experiment to identify the compounds, cells were seeded into 96- or 384-well microtiter plates at plating densities pre-determined for each cell line to ensure drug exposure occurs during the proliferative phase well before confluency is reached. […] Values were calculated for each of these three parameters if the level of activity was reached; however, if the effect was not reached or was exceeded, the value for that parameter was expressed as greater or less than the maximum or minimum concentration tested.

RPMI-8826 = test: Complementary DBM in vitro profiling: RPMI-8826 (Hematologic Cancer)
Protocol: as §1, §2, §3, §4

c-Jun phosphorylation = test: Intracellular signaling molecule phospho-array; details: human hyperproliferative GBM cancer cells; effect requiring 24 hours
Protocol: An intracellular signaling molecule phospho-array was performed in compound-treated human hyperproliferative GBM cancer cells and in vehicle-treated human hyperproliferative GBM cancer cells. The tested compounds included Compound DBM 228 (002-N8-28), Compound DBM 328 (003-8COOH), and Compound DBM 308 (003-8Cl). DMSO served as the vehicle control. The numbers reflect pairs of spots in the typical dot blots that correspond to major kinases and other signaling proteins. Compound DBM 328 (003-8COOH) is a negative control for this array experiment to complement the DMSO vehicle control.

[1] = read-out: LC50 (the source's name)

In the case of COc1ccccc1Nc1nc(-c2cc3cccc(N)c3oc2=O)cs1 [Compound DBM 228], the GI50 (K-562) is reported as 43 nM, the TGI (K-562) is reported as 16100 nM and the CC50 (K-562; [1]) is reported as > 100000 nM. For the same molecule, the GI50 (HOP-62) was 537 nM, the TGI (HOP-62) was 44800 nM and the CC50 (HOP-62; [1]) was > 100000 nM. For the same molecule, the GI50 (NCI-H460) was 91.2 nM, the TGI (NCI-H460) was 14200 nM and the CC50 (NCI-H460; [1]) was > 100000 nM. The GI50 (NCI-H522) was 24.7 nM, the TGI (NCI-H522) was 94 nM and the CC50 (NCI-H522; [1]) was > 100000 nM. For the same molecule, the GI50 (HCT-15) was 128 nM, the TGI (HCT-15) was 17300 nM and the CC50 (HCT-15; [1]) was > 100000 nM. For the same molecule, the GI50 (SNB-19) was 182 nM, the TGI (SNB-19) was 35000 nM and the CC50 (SNB-19; [1]) was > 100000 nM. The GI50 (OVCAR-4) was 1350 nM, the TGI (OVCAR-4) was 25000 nM and the CC50 (OVCAR-4; [1]) was > 100000 nM. For the same molecule, the GI50 (DU-145) was 356 nM, the TGI (DU-145) was 5310 nM and the CC50 (DU-145; [1]) was 41000 nM. The TGI (T-47D) was 55900 nM, the CC50 (T-47D; [1]) was > 100000 nM and the GI50 (MDA-MB-468) was 47.1 nM. It also gave a TGI (MDA-MB-468) of 800 nM, a CC50 (MDA-MB-468; [1]) of 60900 nM and a GI50 (U118MG) of 2710 nM. For the same molecule, the TGI (U118MG) was 7850 nM, the CC50 (U118MG; [1]) was > 30000 nM and the GI50 (RPMI-8826) was 271 nM. For the same molecule, the TGI (RPMI-8826) was 312 nM, the CC50 (RPMI-8826; [1]) was > 30000 nM and the “effect on c-Jun phosphorylation, in words” value (c-Jun phosphorylation) was “potentiation of c-Jun phosphorylation”.
